Reference: patent US4704400A, “Medicarpin derivatives and analogs” (Merck & Co., Inc., priority 1986, dated 1987)

What was measured:
[1] = tested on: prostaglandin; settings: isolated from Dalbergia Odorifera T. Chen.; cited from earlier work
[2] = tested on: leukotriene C4 production in CXBG cells; assay: Inhibition of CXBG leukotriene production (leukotriene C4 by enzyme immunoassay, A23187-stimulated cells); type: cell-based, mice; settings: A23187 stimulation 10 minutes at 37°, inhibitor preincubated 5 minutes
Procedure: (§1) Representative compounds of Formula I have been tested using the following assay to determine their mammalian leukotriene biosynthesis inhibiting activity and other relevant activities:
(§2) CXBG cells grown intraperitoneally in CB4 B6 /F1 /J mice were washed 5 times in Dulbeccos phosphate buffered saline without calcium or magnesium, suspended in medium 199 (Gibco) at 2×10^6 cells/ml, and incubated 15 minutes at 37°. Inhibitor solutions in methanol were incubated with the cells (10 μl/600 μl cells), for 5 minutes at 37°, and the cells were stimulated with 60 μl A23187 (50 μg/ml) for 10 minutes at 37°. Aliquots were removed for measurement of leukotriene C4 or thromboxane B2 by enzyme immunoassay as previously reported (D. K. Miller, et al., J. Immunological Methods, 81, 169-185, 1985). The percentage inhibition was calculated by the following: [formula]
(§3) IC50 s were determined graphically.

[3] = tested on: thromboxane B2 production in CXBG cells; assay: Inhibition of CXBG prostoglandin production (thromboxane B2 by enzyme immunoassay, A23187-stimulated cells); type: cell-based, mice; settings: A23187 stimulation 10 minutes at 37°, inhibitor preincubated 5 minutes
Procedure: as §1, §2, §3

Compound	prostaglandin inhibition [1]	IC50, LTC4 [2] [µg/mL]	IC50, TXB2 [3] [µg/mL]
COc1ccc2c(c1)O[C@H]1c3ccc(O)cc3OC[C@@H]21 (relative stereo) [medicarpin]	negative results	–	–
(iso)medicarpin	–	0.1	> 5
